Experiments:
[1] = tested on: C57BL/6J male mice; assay: Novel object recognition (NOR); type: in vivo, mouse; conditions: for memory performance in testing phase of NOR: 3 month-old WT mice, single acute hippocampal stereotactic injection 12 hours before training phase
[2] = tested on: C57BL/6J male mice; assay: Contextual fear conditioning (CFC); type: in vivo, mouse; conditions: for memory performance in testing phase of CFC: 3 month-old WT mice, single acute hippocampal stereotactic injection 12 hours before training phase
[3] = tested on: hippocampal autophagy (LC3-II); conditions: 16 month-old mice, 12 hours after hippocampal stereotactic injection, 1 μg/hemisphere, compared with 3 month-old mice
[4] = tested on: C57BL/6J male mice; conditions: 16 month-old mice, local hippocampal stereotactic injection 1 μg/hemisphere, versus 3 month-old mice
[5] = 16 month-old mice, 14 days of daily intraperitoneal injections, 450 μg
[6] = 16 month-old mice, local hippocampal stereotactic injection 1 μg/hemisphere, versus 3 month-old mice

CCN(CC)CCCC(C)Nc1ccnc2cc(Cl)ccc12 (centres unmarked) [chloroquine, Chloroquine, reference compound]
memory performance in testing phase of NOR [1]: significant decrease in memory performance
memory performance in testing phase of CFC [2]: significant decrease in memory performance

Fc1ccc(CNc2ncnc3ccc(F)cc23)cc1 [Spautin-1, reference compound]
memory performance in testing phase of NOR [1]: significant decrease in memory performance
memory performance in testing phase of CFC [2]: significant decrease in memory performance

CC(=O)N[C@@H](CC(C)C)C(=O)N[C@@H](CC(C)C)C(=O)N[C@H](C=O)CCCNC(=N)N [leupeptin, Leupeptin, reference compound]
memory performance in testing phase of NOR [1]: significant decrease in memory performance
memory performance in testing phase of CFC [2]: significant decrease in memory performance

YGRKKRRQRRRGGTNVFNATFEIWHDGEFGT [TAT-Beclin 1]
memory performance in testing phase of NOR [1]: enhanced learning/memory capacities
age-related memory decline, NOR [1, 5]: counteract normal age-related memory decline
age-related memory deficits, NOR [1, 6]: rescue age-related memory deficits
memory performance in testing phase of CFC [2]: enhanced learning/memory capacities
age-related memory decline, CFC [2, 5]: counteract normal age-related memory decline
age-related memory deficits, CFC [2, 6]: rescue age-related memory deficits
LC3-II levels (Western blot) [3]: restored LC3-II levels in old (16 months) to the level of young (3 months) mice
age-related memory deficits, OLM [4]: rescue age-related memory deficits

From patent US20210379146A1, “METHOD TO RESTORE OR IMPROVE COGNITIVE FUNCTIONS” (INSERM (INSTITUT NATIONAL DE LA SANTÉ ET DE LA RECHERCHE …, priority 2018, published 2021)
